From US11098038B2, “Imidazole-based anticancer agents and derivatives thereof, and methods of making and using same” (The University of Toledo, priority 2017, dated 2021) come the findings set out here.

What all share (format): cell-based
One test concerns KM12. Briefly: NCI 60 screen, KM12. The conditions noted are these: Homo sapiens, Colon. How it is done: (§1) The compounds synthesized were tested at the National Cancer Institute (NCI) for anti-proliferative activity in the 60 human tumor cell line assay.
Another test has as its system SF-539. Briefly: NCI 60 screen, SF-539. To be noted: Homo sapiens, CNS. The procedure:
as §1

The test system of another test is COLO 205. Briefly: NCI 60 screen, COLO 205. The conditions noted are these: Homo sapiens, Colon. The procedure: as §1
Test [1] deals with chromosome alignment, centromeres, and spindle body. Nature of the test: Fluorescence microscopy of chromosome alignment, centromeres and spindle body. To be noted: FIGS. 8A-8B. From the text: FIGS. 8A-8B: Color images showing effects of compound 25 on chromosome alignment, centromeres, and spindle body. Microtubules that make up the mitotic spindle are detected with an antibody linked to a green fluorophore, which was detected with a fluorescence microscope. Centromeres were detected with a far red fluorophore (they are pseudocolored pink). DNA was detected with Hoechst DNA stain, which is blue.
In normal cells (FIG. 8A, upper two panels), chromosomes line up between the spindle poles at metaphase. In cells treated with compound 25 for several hours (FIG. 8A, lower two panels), cells still enter mitosis but centromeres are found all over the cell (not just in the middle between the poles of the spindle). […] However, when ZM is combined with compound 25, what was observed was a very dramatic disruption of spindle architecture. […] Without wishing to be bound by theory, it is believed that both Aurora B and the targets of compound 25 work in parallel to control tubulin function. When either one is inhibited alone, there is no effect since the other pathway compensates. When both are inhibited, the defect is detected.

The next test deals with SNB-19. Nature of the test: NCI 60 screen, SNB-19. The conditions noted are these: Homo sapiens, CNS. How it is done:
as §1

The subject of the next test is MCF7. Briefly: NCI 60 screen, MCF7. To be noted: Homo sapiens, Breast. The procedure: as §1
The test system of another test is SK-OV-3. Briefly: NCI 60 screen, SK-OV-3. To be noted: Homo sapiens, Ovarian. The procedure:
as §1

The subject of a further test is A549/ATCC. Briefly: NCI 60 screen, A549/ATCC. The conditions noted are these: Homo sapiens, Non-Small Cell Lung. How it is done:
as §1

For a further test, the system named is ACHN. Briefly: NCI 60 screen, ACHN. To be noted: Homo sapiens, Renal. How it is done:
as §1

Another test relates to SF-268. Briefly: NCI 60 screen, SF-268. To be noted: Homo sapiens, CNS. The procedure: as §1
In a further test the test system is NCI-H23. Briefly: NCI 60 screen, NCI-H23. The conditions noted are these: Homo sapiens, Non-Small Cell Lung. How it is done: as §1
The subject of the next test is RPMI-8226. Nature of the test: NCI 60 screen, RPMI-8226. The conditions noted are these: Homo sapiens, Leukemia. How it is done:
as §1

The test system of a further test is HT29. Briefly: NCI 60 screen, HT29. The conditions noted are these: Homo sapiens, HT-29, Colon. The procedure: as §1
Another test concerns EKVX. Briefly: NCI 60 screen, EKVX. To be noted: Homo sapiens, Non-Small Cell Lung. The procedure: as §1
In another test the test system is SF-295. Nature of the test: NCI 60 screen, SF-295. To be noted: Homo sapiens, CNS. How it is done: as §1
Another test has as its system TK-10. Briefly: NCI 60 screen, TK-10. The conditions noted are these: Homo sapiens, Renal. The procedure:
as §1

In a further test the test system is U251. Briefly: NCI 60 screen, U251. To be noted: Homo sapiens, U-251, CNS. The procedure:
as §1

A further test concerns NCI-H226. Nature of the test: NCI 60 screen, NCI-H226. To be noted: Homo sapiens, Non-Small Cell Lung. How it is done:
as §1

Usually GI50 stands for the concentration at which growth is held to half of that of the control. The low end stands for greater sensitivity of the cells, the high end for lower sensitivity of the cells. Regarding `O=C(Cc1ccc(/C=C/C(=O)c2ncc[nH]2)cc1)Nc1ccc(Cl)cc1` [Compound 25, (E)-2-(-4 (3-(1H-imidazol-2-yl)-3-oxoprop-1-en-1-yl)phenyl)-N-(4-chlorophenyl)acetamide], the GI50 in the test on KM12 turned out to be 1.3 µM; in the test on SF-539, 3.33 µM; in the test on COLO 205 it was 3.01 µM; in the test on SNB-19, 2.32 µM; in the test with MCF7, 0.742 µM; in the test on SK-OV-3 it was 9.74 µM. For the same compound, the concentration for 50% growth inhibition (GI50) in the test with A549/ATCC came to 6.9 µM; with ACHN it was 4.04 µM; in the test on SF-268, 1.65 µM; with NCI-H23, 2.97 µM; in the test with RPMI-8226, 0.857 µM; in the test on HT29, 0.886 µM. The 50% growth inhibitory concentration (GI50) was 5.68 µM with EKVX; 3.33 µM in the test with SF-295; 5.41 µM in the test with TK-10; 1.02 µM in the test on U251; 7.5 µM in the test with NCI-H226. In addition, the “Spindle body / spindle architecture” value in test [1] is listed as “the spindle body remained intact”. In test [1] (cells treated for several hours), the “Chromosome alignment / centromere position” value is reported as “chromosomes were misaligned”.
